Reference: patent US20180338980A1, “AROMATIC SULFONAMIDE DERIVATIVES” (BAYER PHARMA AKTIENGESELLSCHAFT, priority 2015, published 2018)
pIC50: −log10 of the molar value. “Also recorded” adds a separate entry of the source.

Columns and labels:
mouse P2X4 receptors = molecular target: T1, mouse P2X4 receptors (Mus musculus, UniProt Q9JJX6); assay: Assay B: mouse P2X4 receptor cell line, Fluo8 fluorescence FLIPR (agonist Bz-ATP at EC50); type: cell-based; conditions: HEK mouse P2X4 cell line, agonist Bz-ATP at EC50, average
T1 construct: host or cells: HEK 293 (recombinant, constitutively expressing)
T1 sequence (Q9JJX6 1-388): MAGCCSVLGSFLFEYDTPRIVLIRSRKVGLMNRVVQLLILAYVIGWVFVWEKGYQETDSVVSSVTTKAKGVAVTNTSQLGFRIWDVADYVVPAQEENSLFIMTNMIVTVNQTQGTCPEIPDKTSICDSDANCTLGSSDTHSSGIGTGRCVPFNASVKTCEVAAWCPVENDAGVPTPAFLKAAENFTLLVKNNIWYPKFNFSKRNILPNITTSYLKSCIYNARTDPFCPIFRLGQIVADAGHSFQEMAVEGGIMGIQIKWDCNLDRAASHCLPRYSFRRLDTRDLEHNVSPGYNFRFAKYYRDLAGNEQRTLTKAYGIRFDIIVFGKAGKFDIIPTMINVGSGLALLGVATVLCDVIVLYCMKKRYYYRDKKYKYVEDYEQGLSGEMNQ
Description: The identification of agonists and antagonists of the P2X4 receptor from humans and […] also the quantification of the activity of the compounds of the invention was performed by use of recombinant cell lines. […] The test cell lines constitutively express the mouse or human P2X4 receptors. Stimulation of the receptors with an agonist leads to a conformational change of P2X4 and influx of extracellular calcium ions through the ion channel. The cytoplasmatic calcium transient is detected via the calcium sensitive dye Fluo8 for the mouse P2×4 cell line or in case of the human P2×4 cell line a stably expressed calcium-sensitive photoprotein, mitochondrial photina, which, after reconstitution with the cofactor coelenterazine, emits light in dependence of calcium binding [Bovolenta S, Foti M, Lohmer S, Corazza S., J Biomol Screen. […] The strength of Fluo8 fluorescence signal or photina luminescence signal corresponds to the level of receptor activation. An inhibitor would decrease the signal depending on its potency and concentration.
On the day of the assay medium is exchanged by Fluo8 containing buffer for 30 minutes. In the fluorescence reader (FLIPR) test substances in various concentrations are added for 10 minutes. After baseline measurement the agonist Bz-ATP at EC50 concentration is applied and fluorescence is measured immediately.

P2X4 [1] = molecular target: T2, P2X4 (Homo sapiens, UniProt Q99571); assay: Human whole blood assay (human WBA): IL-13 production after LPS priming and ATP stimulation; type: cell-based; set-up: from tissue; host or cells: human whole blood of healthy female volunteers; conditions: IL-13 in human whole blood, LPS 100 ng/ml 2 h then ATP 3 mM 1 h; total concentration
T2 sequence (Q99571 1-388): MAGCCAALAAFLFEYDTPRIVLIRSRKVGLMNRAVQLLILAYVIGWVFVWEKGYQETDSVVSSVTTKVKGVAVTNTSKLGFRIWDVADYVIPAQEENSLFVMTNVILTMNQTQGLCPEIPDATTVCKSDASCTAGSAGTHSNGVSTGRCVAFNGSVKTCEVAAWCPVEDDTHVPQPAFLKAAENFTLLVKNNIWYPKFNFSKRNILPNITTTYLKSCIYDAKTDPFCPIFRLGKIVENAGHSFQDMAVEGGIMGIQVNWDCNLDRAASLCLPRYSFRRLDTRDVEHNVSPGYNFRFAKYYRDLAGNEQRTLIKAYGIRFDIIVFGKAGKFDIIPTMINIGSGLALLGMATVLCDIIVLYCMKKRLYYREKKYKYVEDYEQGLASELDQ
Description: Human whole blood assay (human WBA) was prepared from the blood of healthy female volunteers. In this assay, the efficacy of P2X4 antagonists on the production of IL-13 in whole blood after ATP stimulation (3 mM for 1 h) following priming of the cells with lipopolysacaride (LPS, 100 ng/ml for 2 h) was evaluated. After incubation, supernatant was taken following centrifugation and the formation of IL-13 was assayed using standard ELISA kits. IC50 values were calculated using GraphPad PRISM program with nonlinear regression curve fit. Data are presented as total concentration.

P2X4 [2] = molecular target: T2, P2X4; assay: Assay A: human P2X4 receptor cell line, FLIPR calcium assay (Fluo-8, agonist Bz-ATP at EC80); type: cell-based; set-up: host or cells: HEK 293 (recombinant, constitutively expressing; with mitochondrial photina in Assay B); conditions: HEK human P2X4 cells, Fluo-8 FLIPR; for pIC50: Bz-ATP at EC80, average values; for Emax: percentage of maximal inhibition, read-out: human P2X4 Assay A avg Efficacy
In short: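 Antagonism read as inhibition of the calcium response to EC80 Bz-ATP, by peak-over-basal Fluo-8 fluorescence over 120 s, normalized to DMSO wells. Human P2X4-HEK cells, dye-loaded 30 min in probenecid-containing HBSS/HEPES pH 7.4, received compound 30 min beforehand at room temperature, 0.5% DMSO final. Triplicates fitted for IC50, maximal inhibition and Hill slope.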

P2X4 [3] = molecular target: T2, P2X4; assay: Assay B: human P2X4 receptor cell line, mitochondrial photina luminescence (agonist Bz-ATP at EC50); type: cell-based; set-up: host or cells: HEK 293 (recombinant, constitutively expressing; with mitochondrial photina in Assay B); conditions: HEK human P2X4 cell line, photina luminescence, agonist Bz-ATP at EC50, average; for Emax: read-out: human P2X4 Assay B avg Efficacy
In short: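 Bz-ATP at its EC50 activates human P2X4 stably expressed in a cell line that also carries the calcium-sensitive photoprotein mitochondrial photina (coelenterazine cofactor). Light emitted on calcium influx is measured straight away in a luminometer. Reduced luminescence indicates antagonism.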

PGE2 levels = PGE2 levels after CFA-induced inflammation in mice (hind paw tissue, ELISA); type: in vivo, mouse; conditions: single oral dose 12.5, 25, 50 mg/kg, 48 h after CFA, 1 h after dose
Description: Female c57bl/6 mice (Taconic) received intraplantar injection of complete Freund's adjuvant (CFA) (30 μl, 1 mg/ml, Sigma) into the left hind paw under isoflurane anesthesia. […] At termination of the experiments (48 h after CFA, 1 h after dose), hind paw tissue is collected for analysis of PGE2 levels (ELISA, Cayman Chemical item no. 514531).
(§1) Statistical analysis is performed with one-way analysis of variance, followed by Bonferroni's multiple comparison test vs. vehicle controls using the GraphPad PRISM software, *p<0.05, **p<0.01.

c57bl/6 mice = assay: CFA inflammation model with pain read out (dynamic weight bearing); type: in vivo, mouse; conditions: 50 mg/kg oral on day 1 and day 2 post-CFA, 24-48 h after CFA
Description: Wild type female c57bl/6 mice (Taconic) received intraplantar injection of complete Freund's adjuvant (CFA) (30 μl, 1 mg/ml, Sigma) into the left hind paw under isoflurane anesthesia. […] Spontaneous pain-related behavior in freely moving animals was assessed using the automated dynamic weight bearing device (DWB, Bioseb, France) according to published and validated protocols (Robinson et al., 2012; Tetreault et al., 2011; Gruen et al. 2014). For behavioral testing, the animal was placed inside a Plexiglas chamber and allowed to move freely within the apparatus for a 5 min period, subsequently pain behavior is recorded for a test period of another 5 min.
as §1

| SMILES | pIC50 (mouse P2X4 receptors) | mouse P2X4 Assay B avg Efficacy (mouse P2X4 receptors) [%] | pIC50 (P2X4 [1]) | pIC50 (P2X4 [2]) | Emax (P2X4 [2]) [%] | pIC50 (P2X4 [3]) | Emax (P2X4 [3]) [%] | PGE2 levels in inflamed hind paw after CFA injection (PGE2 levels) | spontaneous pain behavior assessed by DWB after CFA-induced inflammation (c57bl/6 mice) |
| --- | --- | --- | --- | --- | --- | --- | --- | --- | --- |
| N#Cc1cccc(Oc2ccc(NC(=O)Cc3ccccc3Cl)cc2S(N)(=O)=O)c1 [Example 015, 2-(2-Chlorophenyl)-N-[4-(3-cyanophenoxy)-3-sulfamoylphenyl]acetamide] | 6.83 | 45 | 5.60 | 7.24 | 71 | 7.60 | 80 |  |  |
| NS(=O)(=O)c1cc(NC(=O)Cc2ccccc2Cl)ccc1OC1CCOCC1 [Example 207, 2-(2-Chlorophenyl)-N-[3-sulfamoyl-4-(tetrahydro-2H-pyran-4-yloxy)phenyl]acetamide] | ≤ 4.80 | 20 |  | 6.33 | 60 | 7.00 | 77 |  |  |

The next lines start with results.

| pIC50 (mouse P2X4 receptors) | mouse P2X4 Assay B avg Efficacy (mouse P2X4 receptors) [%] | pIC50 (P2X4 [1]) | pIC50 (P2X4 [2]) | Emax (P2X4 [2]) [%] | pIC50 (P2X4 [3]) | Emax (P2X4 [3]) [%] | SMILES | PGE2 levels in inflamed hind paw after CFA injection (PGE2 levels) | spontaneous pain behavior assessed by DWB after CFA-induced inflammation (c57bl/6 mice) |
| --- | --- | --- | --- | --- | --- | --- | --- | --- | --- |
|  |  | 4.52 | 6.33 | 63 | 7.11 | 56 | COc1ccc(CC(=O)Nc2ccc(Oc3ccc(Cl)cc3)c(S(N)(=O)=O)c2)cc1 [Example 229, N-[4-(4-Chlorophenoxy)-3-sulfamoylphenyl]-2-(4-methoxyphenyl)acetamide] |  |  |
| 5.48 | 61 |  | 6.67 | 57 | 6.83 | 49 | NS(=O)(=O)c1cc(NC(=O)Cc2ccccc2Cl)ccc1OC1CCS(=O)(=O)C1 (stereo not drawn) [Example 232, 2-(2-Chlorophenyl)-N-{4-[(1,1-dioxidotetrahydrothiophen-3-yl)oxy]-3-sulfamoylphenyl}acetamide] |  |  |
|  | 51 |  |  |  |  |  | NS(=O)(=O)c1cc(NC(=O)Cc2ccccc2)ccc1Oc1cccc(Cl)c1 [Example 244, N-[4-(3-Chlorophenoxy)-3-sulfamoylphenyl]-2-phenylacetamide] | dose-dependently reduced PGE2 levels; also recorded: still in the range of PGE2 levels of PBS treated animals | significantly reduced spontaneous pain behavior |
